These results are taken from paper PMC9154810, “Selective inhibition of carbonic anhydrase IX by sulphonylated 1,2,3-triazole incorporated benzenesulphonamides capable of inducing apoptosis” (Journal of Enzyme Inhibition and Medicinal Chemistry, 2022).

One data set concerns the target hCA I (Homo sapiens, UniProt P00915). The experiment in a line: stopped-flow CO2 hydrase assay, hCA I. To be noted: mean from three assays, stopped-flow technique, errors ± 5–10%.
The next data set addresses hCA II (Homo sapiens, UniProt P00918). The experiment in a line: stopped-flow CO2 hydrase assay, hCA II.
In another data set the target is hCA IV (Homo sapiens, UniProt P22748). Put plainly: stopped-flow CO2 hydrase assay, hCA IV.
The target of a further data set is hCA IX (Homo sapiens, UniProt Q16790). The experiment in a line: stopped-flow CO2 hydrase assay, hCA IX. To be noted: for Selectivity index II/IX: ratio KI hCA II / KI hCA IX; for Selectivity index I/IX: ratio KI hCA I / KI hCA IX.

Sequence of hCA I (P00915 whole entry): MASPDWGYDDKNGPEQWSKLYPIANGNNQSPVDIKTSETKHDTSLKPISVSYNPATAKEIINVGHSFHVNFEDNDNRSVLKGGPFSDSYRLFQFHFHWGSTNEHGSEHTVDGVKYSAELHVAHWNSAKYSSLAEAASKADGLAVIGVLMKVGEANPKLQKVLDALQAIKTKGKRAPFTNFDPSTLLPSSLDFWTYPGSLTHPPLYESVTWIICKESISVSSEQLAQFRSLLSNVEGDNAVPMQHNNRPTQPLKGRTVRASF
Sequence of hCA IV (P22748 19-312): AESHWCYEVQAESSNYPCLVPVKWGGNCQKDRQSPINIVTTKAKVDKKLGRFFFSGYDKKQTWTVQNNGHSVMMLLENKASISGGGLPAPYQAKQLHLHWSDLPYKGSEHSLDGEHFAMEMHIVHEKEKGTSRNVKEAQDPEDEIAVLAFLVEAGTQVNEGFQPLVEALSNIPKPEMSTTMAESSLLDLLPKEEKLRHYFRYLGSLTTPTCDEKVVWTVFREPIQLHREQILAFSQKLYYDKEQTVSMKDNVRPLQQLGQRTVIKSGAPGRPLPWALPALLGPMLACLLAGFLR
Description for hCA II: (§1) An Sx.18Mv-R Applied Photophysics (Oxford, UK) stopped-flow instrument was used to assay the catalytic activity of various CA isozymes for CO2 hydration reaction.[21]
Description for hCA IV: as §1
Description for hCA IX: as §1

The term Ki denotes a measure of affinity in units of concentration, obtained from inhibition or displacement. Lower therefore signals a stronger hold on the target. Take `NS(=O)(=O)c1ccc(-n2nnc(S(=O)(=O)c3ccccc3)c2-c2ccc([N+](=O)[O-])cc2)cc1` [Compound 9i, 4-(5-(4-nitrophenyl)-4-(phenylsulphonyl)-1H-1,2,3-triazol-1-yl)benzenesulphonamide]: the Ki was 285 nM at hCA I, 4.9 nM at hCA II, 84.7 nM on hCA IV and 32.4 nM on hCA IX.

The term melting point denotes the temperature of the solid-liquid transition. The compound `Cc1ccc(-c2c(S(=O)(=O)c3ccccc3)nnn2-c2ccc(S(N)(=O)=O)cc2)cc1` [Compound 9b, 4-(4-(phenylsulphonyl)-5-(p-tolyl)-1H-1,2,3-triazol-1-yl)benzenesulphonamide] gave a melting point of 205 to 207 °C. Besides, on hCA I, the Ki stood at 767 nM. Further, the Ki on hCA II was found to be 7.8 nM. The Ki at hCA IV was determined as 82.1 nM. Moreover, at hCA IX, the affinity corresponds to a Ki of 30.9 nM and the “Selectivity index II/IX” value came to 0.25.

Regarding `NS(=O)(=O)c1ccc(-n2nnc(S(=O)(=O)c3ccccc3)c2-c2ccc(-c3ccccc3)cc2)cc1` [Compound 9k, 4-(5-([1,1′-biphenyl]-4-yl)-4-(phenylsulphonyl)-1H-1,2,3-triazol-1-yl)benzenesulphonamide], the melting point was 214 to 216 °C. The Ki on hCA I stood at 3540 nM. The compound also registered a Ki on hCA II of 833 nM. Further, at hCA IV, affinity was put at a Ki of 414 nM. Moreover, at hCA IX, the Ki stood at 24.8 nM, the “selectivity for hCA IX over hCA I” value is reported as “more than 100 fold”, the “selectivity for hCA IX over hCA II” value is on record as “more than 30 fold” and the “Selectivity index I/IX” value is 142.86. The “Selectivity index II/IX” value on hCA IX is on record as 33.60.

The compound `NS(=O)(=O)c1ccc(-n2nnc(S(=O)(=O)c3ccccc3)c2-c2ccc(Cl)cc2)cc1` [Compound 9d, 4-(5-(4-chlorophenyl)-4-(phenylsulphonyl)-1H-1,2,3-triazol-1-yl)benzenesulphonamide] gave a melting point of 213 to 215 °C. Besides, the Ki at hCA I amounted to 4630 nM. The same compound returned a Ki on hCA II of 56.7 nM. On hCA IV, this compound returned a Ki of 526 nM. Besides, on hCA IX, the Ki came to 25.1 nM, the “selectivity for hCA IX over hCA I” value is given as “more than 100 fold”, the “Selectivity index I/IX” value is on record as 184.42 and the “Selectivity index II/IX” value was 2.26.

`NS(=O)(=O)c1ccc(-n2nnc(S(=O)(=O)c3ccccc3)c2-c2ccc(F)cc2)cc1` [Compound 9c, 4-(5-(4-fluorophenyl)-4-(phenylsulphonyl)-1H-1,2,3-triazol-1-yl)benzenesulphonamide] yielded a melting point of 207 to 209 °C. The compound also registered a Ki at hCA I of 264 nM. Besides, at hCA II, the Ki is 6.6 nM. Besides, the Ki at hCA IV was 86.1 nM. Also, on hCA IX, the Ki came to 66 nM, the “Selectivity index I/IX” value is listed as 4.00 and the “Selectivity index II/IX” value is given as 0.10.

In the case of `NS(=O)(=O)c1ccc(-n2nnc(S(=O)(=O)c3ccccc3)c2-c2cccc(Br)c2)cc1` [Compound 9f, 4-(5-(3-bromophenyl)-4-(phenylsulphonyl)-1H-1,2,3-triazol-1-yl)benzenesulphonamide], the melting point was 282 to 284 °C. In addition, at hCA I, the affinity corresponds to a Ki of 434 nM. On hCA II, this compound returned a Ki of 9.2 nM. In addition, the Ki on hCA IV was found to be 94.8 nM. Besides, on hCA IX, the Ki is 27.1 nM, the “Selectivity index I/IX” value amounted to 16.00 and the “Selectivity index II/IX” value is listed as 0.34.

For `NS(=O)(=O)c1cccc(-n2nnc(S(=O)(=O)c3ccccc3)c2-c2ccc(-c3ccccc3)cc2)c1` [Compound 10k, 3-(5-([1,1′-biphenyl]-4-yl)-4-(phenylsulphonyl)-1H-1,2,3-triazol-1-yl)benzenesulphonamide], the melting point fell in the range of 74 to 76 °C. The same compound returned a Ki on hCA I of 2060 nM. Besides, at hCA II, the Ki is 211 nM. This compound also displayed a Ki at hCA IV of 849 nM. Besides, at hCA IX, the Ki was found to be 22.6 nM, the “Selectivity index I/IX” value was determined as 91.02 and the “Selectivity index II/IX” value worked out at 9.33.

On to `COc1ccc(-c2c(S(=O)(=O)c3ccccc3)nnn2-c2cccc(S(N)(=O)=O)c2)cc1` [Compound 10g, 3-(5-(4-methoxyphenyl)-4-(phenylsulphonyl)-1H-1,2,3-triazol-1-yl)benzenesulphonamide], for which the Ki at hCA I was 509 nM; at hCA II, 44.3 nM; on hCA IV, 84 nM; at hCA IX, 24.1 nM.

For `NS(=O)(=O)c1cccc(-n2nnc(S(=O)(=O)c3ccccc3)c2-c2cccc(Br)c2)c1` [Compound 10f, 3-(5-(3-bromophenyl)-4-(phenylsulphonyl)-1H-1,2,3-triazol-1-yl)benzenesulphonamide], the melting point lay within 97 to 99 °C. Moreover, at hCA I, affinity was put at a Ki of 689 nM. At hCA II, this compound showed a Ki of 370 nM. This compound showed a Ki on hCA IV of 84.3 nM. On hCA IX, the Ki was 28.6 nM, the “Selectivity index I/IX” value turned out to be 24.10 and the “Selectivity index II/IX” value was determined as 12.93.

With `NS(=O)(=O)c1cccc(-n2nnc(S(=O)(=O)c3ccccc3)c2-c2ccc([N+](=O)[O-])cc2)c1` [Compound 10i, 3-(5-(4-nitrophenyl)-4-(phenylsulphonyl)-1H-1,2,3-triazol-1-yl)benzenesulphonamide], the Ki was 868 nM at hCA I, 35.2 nM at hCA II, 64.4 nM on hCA IV and 27 nM on hCA IX.

In turn, `COc1ccc(-c2c(S(=O)(=O)c3ccccc3)nnn2-c2ccc(S(N)(=O)=O)cc2)cc1` [Compound 9g, 4-(5-(4-methoxyphenyl)-4-(phenylsulphonyl)-1H-1,2,3-triazol-1-yl)benzenesulphonamide] displayed a melting point of 235 to 237 °C. On hCA I, this compound gave a Ki of 7840 nM. The compound also displayed a Ki on hCA II of 6.2 nM. At hCA IV, this compound had a Ki of 493 nM. Besides, at hCA IX, the Ki came out at 24.9 nM, the “selectivity for hCA IX over hCA I” value is reported as “more than 100 fold”, the “Selectivity index I/IX” value was found to be 314.73 and the “Selectivity index II/IX” value came out at 0.25.

For `NS(=O)(=O)c1cccc(-n2nnc(S(=O)(=O)c3ccccc3)c2-c2ccccc2)c1` [Compound 10a, 3-(5-phenyl-4-(phenylsulphonyl)-1H-1,2,3-triazol-1-yl)benzenesulphonamide], the melting point fell in the range of 172 to 174 °C. At hCA I, this compound showed a Ki of 607 nM. The Ki on hCA II is 161 nM. The compound further displayed a Ki at hCA IV of 78.6 nM. At hCA IX, the Ki stood at 26 nM, the “Selectivity index I/IX” value is listed as 23.35 and the “Selectivity index II/IX” value is 6.20.

Regarding `NS(=O)(=O)c1cccc(-n2nnc(S(=O)(=O)c3ccccc3)c2-c2ccc(Br)cc2)c1` [Compound 10e, 3-(5-(4-bromophenyl)-4-(phenylsulphonyl)-1H-1,2,3-triazol-1-yl)benzenesulphonamide], the melting point is 96 to 98 °C. This compound gave a Ki on hCA I of 636 nM. The compound further came in with a Ki at hCA II of 138 nM. Moreover, the affinity at hCA IV corresponds to a Ki of 80.1 nM. On hCA IX, the Ki is 25.1 nM, the “Selectivity index I/IX” value amounted to 25.33 and the “Selectivity index II/IX” value came to 5.50.

The compound `NS(=O)(=O)c1ccc(-n2nnc(S(=O)(=O)c3ccccc3)c2-c2ccccc2)cc1` [Compound 9a, 4-(5-phenyl-4-(phenylsulphonyl)-1H-1,2,3-triazol-1-yl)benzenesulphonamide] had a melting point of 214 to 216 °C. At hCA I, this compound displayed a Ki of 97.9 nM. This compound also had a Ki at hCA II of 9.6 nM. This compound also gave a Ki on hCA IV of 149 nM. On hCA IX, the affinity, expressed as Ki, was 21.5 nM; the “Selectivity index I/IX” value was 4.55; the “Selectivity index II/IX” value is given as 0.45.

With `NS(=O)(=O)c1cccc(-n2nnc(S(=O)(=O)c3ccccc3)c2-c2cccc([N+](=O)[O-])c2)c1` [Compound 10j, 3-(5-(3-nitrophenyl)-4-(phenylsulphonyl)-1H-1,2,3-triazol-1-yl)benzenesulphonamide], the Ki at hCA I stood at 6900 nM; on hCA II it was 884 nM; on hCA IV, 1680 nM; at hCA IX, 26.7 nM.

In the case of `COc1ccc(-c2c(S(=O)(=O)c3ccccc3)nnn2-c2ccc(S(N)(=O)=O)cc2)cc1Br` [Compound 9h, 4-(5-(3-bromo-4-methoxyphenyl)-4-(phenylsulphonyl)-1H-1,2,3-triazol-1-yl)benzenesulphonamide], the melting point fell in the range of 210 to 212 °C. In addition, at hCA I, the Ki was determined as 9350 nM. Besides, at hCA II, the Ki turned out to be 37.6 nM. At hCA IV, this compound registered a Ki of 1210 nM. Moreover, on hCA IX, the Ki came out at 28.8 nM, the “selectivity for hCA IX over hCA I” value is on record as “more than 100 fold”, the “Selectivity index I/IX” value is listed as 324.62 and the “Selectivity index II/IX” value was 1.30.

The compound `Cc1ccc(-c2c(S(=O)(=O)c3ccccc3)nnn2-c2cccc(S(N)(=O)=O)c2)cc1` [Compound 10b, 3-(4-(phenylsulphonyl)-5-(p-tolyl)-1H-1,2,3-triazol-1-yl)benzenesulphonamide] had a melting point of 186 to 188 °C. The affinity on hCA I corresponds to a Ki of 566 nM. In addition, at hCA II, the Ki amounted to 21.8 nM. This compound displayed a Ki on hCA IV of 347 nM. Besides, at hCA IX, the affinity, expressed as Ki, was 21.2 nM; the “Selectivity index I/IX” value amounted to 26.71; the “Selectivity index II/IX” value turned out to be 1.03.

For `NS(=O)(=O)c1cccc(-n2nnc(S(=O)(=O)c3ccccc3)c2-c2ccc(F)cc2)c1` [Compound 10c, 3-(5-(4-fluorophenyl)-4-(phenylsulphonyl)-1H-1,2,3-triazol-1-yl)benzenesulphonamide], the Ki worked out at 454 nM at hCA I, 119 nM at hCA II, 78.9 nM on hCA IV and 22.8 nM at hCA IX.

For the compound `NS(=O)(=O)c1ccc(-n2nnc(S(=O)(=O)c3ccccc3)c2-c2cccc([N+](=O)[O-])c2)cc1` [Compound 9j, 4-(5-(3-nitrophenyl)-4-(phenylsulphonyl)-1H-1,2,3-triazol-1-yl)benzenesulphonamide], the Ki on hCA I turned out to be 45.4 nM; at hCA II, 6.1 nM; on hCA IV it was 89.6 nM; on hCA IX, 26.3 nM.
